Where two headings read alike, the source gives them in different places.
Tested on: cancer cells
Test: MTS cell growth inhibition assay (72 hours)
Format: cell-based
Procedure: Cells were maintained at 37° C., 5% CO2 in DMEM media supplemented with 1% fetal bovine serum, penicillin/streptomycin and fungizone (Invitrogen). Cells were seeded into 96-well tissue culture plates at 3000 per well and cultured at 37° C. for 18 hours. Test compounds were dissolved and diluted to 300× in DMSO then further diluted 1:40 in DMEM before addition to cells (1:7.5 dilution). Cells were incubated with test compounds for 72 hours followed by incubation with tetrazolium compound (3-(4,5-dimethylthiazol-2-yl)-5-(3-carboxymethoxyphenyl)-2-(4-sulfophenyl)-2H-tetrazolium, inner salt; MTS) and the electron coupling reagent, phenazine methosulfate (PMS) for 4 hours. […] The ability of compounds to inhibit cell growth in this assay is correlated with the reduction of dehydrogenase enzyme activity found in metabolically active cells. The measurement of the absorbance of the formazan was assessed using an ENVISION™ (Perkin Elmer) microplate reader at 492 nm. The calculated IC50 value is the concentration of the test compound that causes a 50% decrease in the absorbance. […] A=>79% inhibition, B=>50 to 79% inhibition, C=<50% inhibition.

[1] = Homo sapiens, DLD-1, 72 h, DLD-1 cells, read-out: DLD-1 MTS 72 hr at 10 μM
[2] = Homo sapiens, KATO III, 72 h, KATO III cells, read-out: KATO III MTS 72 hr at 10 μM
[3] = Homo sapiens, MDA-MB-231, 72 h, MDA-MB-231 cells, read-out: MDA-MB-231 MTS 72 hr at 10 μM
[4] = Homo sapiens, NCI-H1299, 72 h, NCI-H1299 cells, read-out: NCI-H1299 MTS 72 hr at 10 μM
[5] = PaCa-2, 72 h, PACA-2 cells, read-out: PACA-2 MTS 72 hr at 10 μM

| SMILES | inhibition at 10 µM [1] [%] | inhibition at 10 µM [2] [%] | inhibition at 10 µM [3] [%] | inhibition at 10 µM [4] [%] | inhibition at 10 µM [5] [%] |
| --- | --- | --- | --- | --- | --- |
| Nc1nc(NC2Cc3ccccc3N(C(=O)Nc3cc(C(F)(F)F)ccc3F)C2)c2cn[nH]c2n1 (stereo not drawn) [Compound 108, 3-(6-amino-1H-pyrazolo[3,4-d]pyrimidin-4-ylamino)-N-(2-fluoro-5-(trifluoromethyl)phenyl)-3,4-dihydroquinoline-1(2H)-carboxamide] | < 50 | < 50 | < 50 | < 50 | < 50 |
| Nc1nc(NC2Cc3ccccc3N(S(=O)(=O)c3cc(C(F)(F)F)ccc3Cl)C2)c2cn[nH]c2n1 (stereo not drawn) [Compound 66, N4-(1-(2-chloro-5-(trifluoromethyl)phenylsulfonyl)-1,2,3,4-tetrahydroquinolin-3-yl)-1H-pyrazolo[3,4-d]pyrimidine-4,6-diamine] | < 50 | < 50 | < 50 | < 50 | < 50 |
| Nc1nc(NC2Cc3ccccc3N(S(=O)(=O)c3ccc(NC(=O)Nc4ccc(C(F)(F)F)cc4)cc3)C2)c2cn[nH]c2n1 (stereo not drawn) [Compound 188, 1-[4-({3-[(6-amino-1H-pyrazolo[3,4-d]pyrimidin-4-yl)amino]-3,4-dihydroquinolin-1(2H)-yl}sulfonyl)phenyl]-3-[4-(trifluoromethyl)phenyl]urea] | > 79 | > 79 | > 79 | > 79 | > 79 |
| Cc1cc([N+](=O)[O-])ccc1NC(=O)N1CC(Nc2nc(N)nc3[nH]ncc23)Cc2ccccc21 (stereo not drawn) [Compound 113, 3-(6-amino-1H-pyrazolo[3,4-d]pyrimidin-4-ylamino)-N-(2-methyl-4-nitrophenyl)-3,4-dihydroquinoline-1(2H)-carboxamide] | > 79 | > 79 | > 79 | > 79 | > 79 |
| Nc1nc(NC2Cc3ccccc3N(Cc3cc(Cl)ccc3C(F)(F)F)C2)c2cn[nH]c2n1 (stereo not drawn) [Compound 163, N4-{1-[5-chloro-2-(trifluoromethyl)benzyl]-1,2,3,4-tetrahydroquinolin-3-yl}-1H-pyrazolo[3,4-d]pyrimidine-4,6-diamine] | > 79 | > 79 | > 79 | > 79 | > 79 |
| Nc1nc(NC2Cc3ccccc3N(S(=O)(=O)c3cccc(NC(=O)Nc4ccccc4F)c3)C2)c2cn[nH]c2n1 (stereo not drawn) [Compound 215, 1-[3-({3-[(6-amino-1H-pyrazolo[3,4-d]pyrimidin-4-yl)amino]-3,4-dihydroquinolin-1(2H)-yl}sulfonyl)phenyl]-3-(2-fluorophenyl)urea] | – | – | – | < 50 | – |
| COc1ccc(Br)cc1CN1CC(Nc2nc(N)nc3[nH]ncc23)Cc2ccccc21 (stereo not drawn) [Compound 144, N4-[1-(5-bromo-2-methoxybenzyl)-1,2,3,4-tetrahydroquinolin-3-yl]-1H-pyrazolo[3,4-d]pyrimidine-4,6-diamine] | > 79 | > 79 | > 79 | > 79 | > 79 |
| Nc1nc(NC2Cc3ccccc3N(S(=O)(=O)c3cccc(NC(=O)Nc4cccc(C(F)(F)F)c4)c3)C2)c2cn[nH]c2n1 (stereo not drawn) [Compound 199, 1-[3-({3-[(6-amino-1H-pyrazolo[3,4-d]pyrimidin-4-yl)amino]-3,4-dihydroquinolin-1(2H)-yl}sulfonyl)phenyl]-3-[3-(trifluoromethyl)phenyl]urea] | > 79 | > 79 | > 79 | > 79 | > 79 |
| Nc1nc(NC2CCN(S(=O)(=O)c3ccc4c(c3)OCCO4)c3ccccc3C2)c2cn[nH]c2n1 (stereo not drawn) [Compound 165, N4-[1-(2,3-dihydro-1,4-benzodioxin-6-ylsulfonyl)-2,3,4,5-tetrahydro-1H-1-benzazepin-4-yl]-1H-pyrazolo[3,4-d]pyrimidine-4,6-diamine] | < 50 | < 50 | < 50 | < 50 | < 50 |
| Cc1c(C(=O)N2CC(Nc3nc(N)nc4[nH]ncc34)Cc3ccccc32)oc2ccccc12 (stereo not drawn) [Compound 91, (3-(6-amino-1H-pyrazolo[3,4-d]pyrimidin-4-ylamino)-3,4-dihydroquinolin-1(2H)-yl)(3-methylbenzofuran-2-yl)methanone] | 50 to 79 | > 79 | > 79 | < 50 | > 79 |
| COc1cccc(CC(=O)N2CC(Nc3nc(N)nc4[nH]ncc34)Cc3ccccc32)c1 (stereo not drawn) [Compound 101, 1-(3-(6-amino-1H-pyrazolo[3,4-d]pyrimidin-4-ylamino)-3,4-dihydroquinolin-1(2H)-yl)-2-(3-methoxyphenyl)ethanone] | > 79 | < 50 | 50 to 79 | < 50 | < 50 |
| Nc1nc(NC2CCN(S(=O)(=O)c3ccc(F)cc3)c3ccccc3C2)c2cn[nH]c2n1 (stereo not drawn) [Compound 183, N4-{1-[(4-fluorophenyl)sulfonyl]-2,3,4,5-tetrahydro-1H-1-benzazepin-4-yl}-1H-pyrazolo[3,4-d]pyrimidine-4,6-diamine] | < 50 | < 50 | < 50 | < 50 | < 50 |
| Nc1nc(NC2CCN(S(=O)(=O)c3ccsc3)c3ccccc3C2)c2cn[nH]c2n1 (stereo not drawn) [Compound 167, N4-[1-(3-thienylsulfonyl)-2,3,4,5-tetrahydro-1H-1-benzazepin-4-yl]-1H-pyrazolo[3,4-d]pyrimidine-4,6-diamine] | < 50 | < 50 | < 50 | < 50 | < 50 |
| Nc1nc(NC2Cc3ccccc3N(S(=O)(=O)c3ccc(NC(=O)Nc4cc(C(F)(F)F)ccc4F)cc3)C2)c2cn[nH]c2n1 (stereo not drawn) [Compound 196, 1-[4-({3-[(6-amino-1H-pyrazolo[3,4-d]pyrimidin-4-yl)amino]-3,4-dihydroquinolin-1(2H)-yl}sulfonyl)phenyl]-3-[2-fluoro-5-(trifluoromethyl)phenyl]urea] | > 79 | > 79 | > 79 | 50 to 79 | > 79 |
| Nc1nc(NC2Cc3ccccc3N(S(=O)(=O)c3cccc(Br)c3)C2)c2cn[nH]c2n1 (stereo not drawn) [Compound 41, N4-(1-(3-bromophenylsulfonyl)-1,2,3,4-tetrahydroquinolin-3-yl)-1H-pyrazolo[3,4-d]pyrimidine-4,6-diamine] | < 50 | > 79 | < 50 | < 50 | < 50 |
| CC(C)(C)CC(=O)N1CC(Nc2nc(N)nc3[nH]ncc23)Cc2ccccc21 (stereo not drawn) [Compound 94, 1-(3-(6-amino-1H-pyrazolo[3,4-d]pyrimidin-4-ylamino)-3,4-dihydroquinolin-1(2H)-yl)-3,3-dimethylbutan-1-one] | < 50 | < 50 | < 50 | < 50 | < 50 |
| Nc1nc(NC2Cc3ccccc3N(S(=O)(=O)c3cccc(NC(=O)Nc4ccccc4)c3)C2)c2cn[nH]c2n1 (stereo not drawn) [Compound 200, 1-[3-({3-[(6-amino-1H-pyrazolo[3,4-d]pyrimidin-4-yl)amino]-3,4-dihydroquinolin-1(2H)-yl}sulfonyl)phenyl]-3-phenylurea] | < 50 | < 50 | < 50 | < 50 | < 50 |
| Cc1cccc(C(=O)N2CC(Nc3nc(N)nc4[nH]ncc34)Cc3ccccc32)c1 (stereo not drawn) [Compound 82, (3-(6-amino-1H-pyrazolo[3,4-d]pyrimidin-4-ylamino)-3,4-dihydroquinolin-1(2H)-yl)(m-tolyl)methanone] | < 50 | < 50 | < 50 | < 50 | < 50 |
| Nc1nc(NC2Cc3ccccc3N(S(=O)(=O)c3ccc(NC(=O)Nc4ccc5ccccc5c4)cc3)C2)c2cn[nH]c2n1 (stereo not drawn) [Compound 189, 1-[4-({3-[(6-amino-1H-pyrazolo[3,4-d]pyrimidin-4-yl)amino]-3,4-dihydroquinolin-1(2H)-yl}sulfonyl)phenyl]-3-(2-naphthyl)urea] | > 79 | > 79 | > 79 | > 79 | > 79 |
| Nc1nc(NC2Cc3ccccc3N(Cc3ccccc3-c3ccc(F)cc3)C2)c2cn[nH]c2n1 (stereo not drawn) [Compound 159, N4-{1-[(4′-fluorobiphenyl-2-yl)methyl]-1,2,3,4-tetrahydroquinolin-3-yl}-1H-pyrazolo[3,4-d]pyrimidine-4,6-diamine] | < 50 | < 50 | < 50 | < 50 | < 50 |

Source: US8273754B2, “Substituted 1H-pyrazolo[3,4-D]pyrimidine-6-amine compounds” (ArQule, Inc., priority 2008, dated 2012)
